Assay results published in patent US20250223306A1, “TEAD INHIBITORS AND METHODS OF USE” (Sporos BioDiscovery, Inc., priority 2022, published 2025).

Tested on: MSTO-211H xenograft
Test: Inhibition of mouse xenograft MSTO-211H tumors
Assay type: in vivo, BALB/c nude mice
Conditions: 12.5 mg/kg, PO, BID; for Tumor Volume (mean): day 27 (Table 16); for Relative T/C (treated/control relative tumor volume ratio) / TGI: day 27; for Relative T/C (treated/control relative tumor volume ratio): T/C(%) = TRTV / CRTV × 100; for TGI: TGI = [1 − (Ti − T0)/ (Vi − V0)] × 100
Text: This study evaluated the in vivo anti-tumor efficacy of test compounds in BALB/c nude mice for treatment of MSTO-211H xenograft of lung cancer.
• Species: Mus Musculus • Strain: BALB/c nude • Age: 6-8 weeks • Sex: female • Body weight: 18-22 g • Number of animals inoculated with tumor: 80 mice • Number of animals enrolled in the treatment: 36 mice • Number of unenrolled animals: 44 mice • Animal supplier: Beijing Vital River Biotechnology Experimental Animal Co. Ltd Certification number: 20170011010591
The MSTO-211H tumor cells were maintained in RPMI 1640 medium supplemented with 10% Fetal bovine serum and 1% Antibiotic-Antimycotic at 37° C. in an atmosphere of 5% CO2 in air. The tumor cells were routinely subcultured twice weekly by trypsin-EDTA. The cells growing in an exponential growth phase with 95% cell survival or above were harvested, and counted for tumor inoculation.
Each mouse was inoculated subcutaneously at the right flank with MSTO-211H tumor cells (5×10^6+50% matrigel/0.2 mL) for tumor development. Animals were marked with earrings with unique 6 significant figure number for identification. The treatments were started when the average tumor volume reached an average size of 181 mm^3.
The major endpoint was to see if the tumor growth could be delayed or mice could be cured. Tumor volume was measured twice a week in two dimensions using a caliper, and the volume was expressed in mm^3 using the formula: V=0.5 a×b^2 where a and b are the long and short diameters of the tumor, respectively. The tumor size was then used for calculations of T/C value. The TGI value (in percent) or the T/C value (in percent) is an indication of antitumor effectiveness; T and C are the mean tumor volumes or tumor weights of the treated and control groups, respectively, on a given day.
TGI was calculated for each group using the formula: TGI (%)=[1−(Ti−T0)/(Vi−V0)]×100; Ti is the average tumor volume of a treatment group on a given day, To is the average tumor volume of the treatment group on the day of treatment start, Vi is the average tumor volume of the vehicle control group on the same day with Ti, and V0 is the average tumor volume of the vehicle group on the day of treatment start.
Relative T/C (%)=TRTV/CRTV×100 (RTV(%)=Vt/V0×100, Vt is the average tumor volume on a given day, V0 is the average tumor volume on the first day of treatment. TRTV is the RTV of a treatment group, and the CRTV is the RTV of the vehicle control group.)
Summary statistics, including mean and the standard error of the mean (SEM), were provided for the tumor volume of each group at each time point.
Statistical analysis of difference in tumor volume among the groups was conducted on the data obtained at the end of the study.
One-tailed T test was performed to compare tumor volumes between two groups. All data are analyzed using GraphPad Prism 6.0. p<0.05 is considered to be statistically significant.
The antitumor effectiveness of the study was analyzed on PG-D27 when vehicle group reached 588 mm^3.

[1] = day 0 after the start of treatment
[2] = day 3 after the start of treatment
[3] = day 6 after the start of treatment
[4] = day 10 after the start of treatment
[5] = day 13 after the start of treatment
[6] = day 17 after the start of treatment
[7] = day 20 after the start of treatment
[8] = day 23 after the start of treatment
[9] = day 27 after the start of treatment

SMILES | Tumor size (mean) [1] [mm^3] | Tumor size (mean) [2] [mm^3] | Tumor size (mean) [3] [mm^3] | Tumor size (mean) [4] [mm^3] | Tumor size (mean) [5] [mm^3] | Tumor size (mean) [6] [mm^3] | Tumor size (mean) [7] [mm^3] | Tumor size (mean) [8] [mm^3] | Tumor Volume (mean) [mm^3] | Relative T/C (treated/control relative tumor volume ratio) [%] | TGI [%] | Tumor size (mean) [9] [mm^3]
C[C@H](CO)NC(=O)c1cnc2c(C3=CCC(C(F)(F)F)CC3)cccc2c1 (stereo partly drawn) [Compound 7, N—((R)-1-hydroxypropan-2-yl)-8-(4-(trifluoromethyl)cyclohex-1-en-1-yl)quinoline-3-carboxamide] | 181 | 245 | 219 | 124 | 99 | 86 | 109 | 117 | 126 | 21.4 | 113.6 | 126
COC[C@H](CO)NC(=O)c1cnc2c(C3=CCC(C(F)(F)F)CC3)cccc2c1 (stereo partly drawn) [Compound 62, N—((S)-1-hydroxy-3-methoxypropan-2-yl)-8-(4-(trifluoromethyl)cyclohex-1-en-1-yl)quinoline-3-carboxamide] | 181 | 224 | 228 | 149 | 111 | 82 | 88 | 101 | 104 | 17.9 | 119.1 | 104
COc1cc(C2=CCC(C(F)(F)F)CC2)c2ncc(C(=O)N[C@H](C)c3ncco3)cc2c1 (stereo partly drawn) [Compound 109, 6-methoxy-N—((R)-1-(oxazol-2-yl)ethyl)-8-(4-(trifluoromethyl)cyclohex-1-en-1-yl)quinoline-3-carboxamide] | 181 | 216 | 174 | 89 | 59 | 44 | 44 | 46 | 58 | 10.1 | 130.2 | 58
COc1cc(C2=CCC(C(F)(F)F)CC2)c2ncc(C(=O)N[C@H](C)CO)cc2c1 (stereo partly drawn) [Compound 110, N—((R)-1-hydroxypropan-2-yl)-6-methoxy-8-(4-(trifluoromethyl)cyclohex-1-en-1-yl)quinoline-3-carboxamide] | 181 | 207 | 179 | 107 | 75 | 51 | 42 | 53 | 50 | 8.5 | 132.4 | 50
C[C@@H](NC(=O)c1cnc2c(C3=CCC4(CC3)CC4)cccc2c1)c1ncco1 [Compound 166, (R)—N-(1-(oxazol-2-yl)ethyl)-8-(spiro[2.5]oct-5-en-6-yl)quinoline-3-carboxamide] | 181 | 192 | 177 | 153 | 145 | 139 | 148 | 184 | 219 | 38.1 | 90.7 | 219
